Measurements as given in article PMC11229374, “Unlocking the potential of protein-derived peptides to target G-quadruplex DNA: from recognition to anticancer activity” (Nucleic Acids Research, 2024).
“And” between values parts separate entries of the source, which are not always exact repeats. Equal entries are not always repeated.

Assays:
c-MYC G4 [1] = assay: Microscale thermophoresis (MST) binding to c-MYC G4; parameters: species or system human; conditions: 25°C, 20 nM FITC-labelled peptide, DNA serial dilution, 5 mM KH2PO4/K2HPO4 pH 7.0, 20 mM KCl, 0.1% Tween, 5% DMSO
Description: (§1) MST experiments were conducted using a Monolith NT.115 instrument (NanoTemper Technologies, Munich, Germany) at 25°C with medium MST power settings. […] DNA samples were also diluted using the same buffer supplemented with 0.1% Tween. During MST experiments, the concentration of the labelled peptide was kept constant at 20 nM, while a serial dilution of the investigated DNA molecules (ranging from 10 or 20 μM) was prepared and mixed with the peptide solution in a 1:1 volume ratio. All the samples, with a final concentration of 5% DMSO, were loaded into standard capillaries (NanoTemper Technologies) for MST measurements. Data analysis was carried out using the MO.Affinity Analysis (v2.3) software provided with the instrument.

HER2 G4 [2] = assay: Microscale thermophoresis (MST) binding to HER2 G4; parameters: species or system human; conditions: 25°C, 20 nM FITC-labelled peptide, DNA serial dilution, 5 mM KH2PO4/K2HPO4 pH 7.0, 20 mM KCl, 0.1% Tween, 5% DMSO
Description: as §1

c-KIT2 G4 [3] = assay: CD melting, thermal stabilization of c-KIT2 G4; format: binding, human; conditions: CD melting at 264 nm, 5 mM KH2PO4/K2HPO4 pH 7.0, 20 mM KCl, average of three
Source text: The buffer baseline was subtracted from each spectrum.

HT-FANA G4 = conditions: CD melting at 264 nm, 2 μM DNA, 1 mol equiv peptide, 5 mM KH2PO4/K2HPO4 pH 7.0, 20 mM KCl, 1°C/min; average of three; T1/2 DNA alone 62.9°C
Description: (§2) CD experiments were carried out using a Jasco J-815 spectropolarimeter equipped with a PTC-423S/15 Peltier temperature controller. G4-forming and duplex-forming DNA molecules were prepared at a concentration of 2 μM in 5 mM KH2PO4/K2HPO4 buffer (pH 7.0) containing 20 mM KCl or LiCl. CD spectra of DNA/peptide mixtures were obtained by adding 1 mol equiv of peptide (stock solutions of 10 mM in H2O) with respect to the oligonucleotide. CD spectra of DNA molecules in the absence and presence of peptide were recorded at 20 and 100°C in the wavelength range of 220−320 nm and averaged over three scans, utilizing a scan rate of 100 nm/min with a 0.5 s response time and 1 nm bandwidth. The buffer baseline was subtracted from each spectrum. Additionally, CD spectra of Myb1^397–415 in the absence and presence of G4s were recorded at 20°C in the 200−250 nm wavelength range using a scan rate of 20 nm/min, with a 4 s response time and 2 nm bandwidth. The G4 spectra were subtracted from the corresponding G4/peptide mixtures to obtain information on the peptide spectrum in the presence of G4. The percentage of secondary structures adopted by the peptide in the absence and presence of the G4s was estimated using the BeStSel software ([26]). CD melting experiments were performed in the absence and presence of peptides (1 or 2 mol equiv) in the 20−100°C temperature range at 1°C/min heating rate, monitoring changes of the CD signal at wavelengths corresponding to the maximum CD intensity for the G4s (264 nm for c-KIT1, c-KIT2, c-MYC, HER2, HT-FANA, BCL-2, and VEGFR-17T; 290 nm for HRAS1, LWDLN1, HT1, and HT2) and at 252 nm for ds12 duplex. The apparent melting temperatures (T1/2) were determined using non-linear curve fitting with OriginLab© 2021 software (OriginLab Corp., MA, USA). ΔT1/2 values were calculated as the difference in the T1/2 values of the DNA structures in the presence and absence of a peptide.

ds12 duplex = conditions: CD melting at 252 nm, 2 μM DNA, 1 mol equiv peptide, 5 mM KH2PO4/K2HPO4 pH 7.0, 20 mM KCl, 1°C/min; average of three; T1/2 DNA alone 62.7°C
Description: as §2

c-KIT1 G4 = conditions: CD melting at 264 nm, 2 μM DNA, 1 mol equiv peptide, 5 mM KH2PO4/K2HPO4 pH 7.0, 20 mM KCl, 1°C/min; average of three; T1/2 DNA alone 53.8°C
Description: as §2

c-MYC G4 [4] = conditions: CD melting at 264 nm, 2 μM DNA, 1 mol equiv peptide, 5 mM KH2PO4/K2HPO4 pH 7.0, 20 mM LiCl, 1°C/min; average of three; T1/2 DNA alone 68.2°C
Description: as §2

VEGFR-17T G4 = conditions: CD melting at 264 nm, 2 μM DNA, 1 mol equiv peptide, 5 mM KH2PO4/K2HPO4 pH 7.0, 20 mM KCl, 1°C/min; average of three; T1/2 DNA alone 53.7°C
Description: as §2

BCL-2 G4 = conditions: CD melting at 264 nm, 2 μM DNA, 1 mol equiv peptide, 5 mM KH2PO4/K2HPO4 pH 7.0, 20 mM KCl, 1°C/min; average of three; T1/2 DNA alone 60.7°C
Description: as §2

HER2 G4 [5] = conditions: CD melting at 264 nm, 2 μM DNA, 1 mol equiv peptide, 5 mM KH2PO4/K2HPO4 pH 7.0, 20 mM KCl, 1°C/min; average of three; T1/2 DNA alone 62.4°C
Description: as §2

c-KIT2 G4 [6] = assay: Microscale thermophoresis (MST) binding to c-KIT2 G4; parameters: species or system human; conditions: 25°C, 20 nM FITC-labelled peptide, DNA serial dilution, 5 mM KH2PO4/K2HPO4 pH 7.0, 20 mM KCl, 0.1% Tween, 5% DMSO
Description: as §1

Ac-NHTGNSIRHRFRVYLSKRL-NH2 [Myb^397–415]
Kd (c-MYC G4 [1]): 430 nM | Kd (HER2 G4 [2]): 130 nM | ΔT1/2 of c-KIT2 G4 (c-KIT2 G4 [3]; 2 μM DNA, 1 mol equiv peptide, 1°C/min, T1/2 DNA alone 59.5°C): 11.2 °C and 11.2 (±0.2) °C | ΔT1/2 of c-KIT2 G4 (c-KIT2 G4 [3]; 2 mol equiv of peptide with respect to G4, 2 μM DNA, T1/2 c-KIT2 alone 59.5°C): 17.3 (±0.2) °C | ΔT1/2 of HT-FANA G4 (HT-FANA G4): 8.3 °C and 8.3 (±0.2) °C | ΔT1/2 of ds12 duplex (ds12 duplex): 1.0 °C and 1.0 (±0.2) °C | ΔT1/2 of c-KIT1 G4 (c-KIT1 G4): 6.2 (±0.2) °C | ΔT1/2 of c-MYC G4 (c-MYC G4 [4]): 5.0 (±0.2) °C | ΔT1/2 of VEGFR-17T G4 (VEGFR-17T G4): 0.2 (±0.2) °C | ΔT1/2 of BCL-2 G4 (BCL-2 G4): 8.0 (±0.2) °C | ΔT1/2 of HER2 G4 (HER2 G4 [5]): 7.0 (±0.2) °C | Kd (c-KIT2 G4 [6]): 130 nM
